The subject of the first assay is P. putida KT2440. The assay can be described thus: microbe, parasite or virus in culture. In kind it is cell-based. Conditions: Pseudomonas putida, KT2440. As for the experimental part:
Toxicity of the TC wastewater streams and toxic compounds present in FPS were evaluated in microplate growth assays performed in a Bioscreen C MBR analyzer (Growth Curves US, Piscataway, N.J.). Pre-cultures of the strains were prepared by inoculating 25 mL M9 medium supplemented with 20 mM glucose in a 125 mL baffled flask to an OD600 of 0.05-0.1 and incubating shaking at 225 rpm, 30° C. At mid log phase (OD600 0.5-1.0), cells were harvested by centrifugation at 13,000 rpm, and the cell pellets were washed twice and resuspended in M9 medium without a carbon source. These resuspended cells were used to inoculate microplate wells containing 200 μL of M9 medium supplemented with 20 mM glucose and various concentrations of TC wastewater streams or their components to OD600 0.1. Microplates were then incubated at 30° C. with maximum shaking and growth was measured by reading the absorbance (OD420-580) every 30 minutes. Growth rates were calculated according to the growth curve equation.
The compounds present in the FPF stream were classified according to chemical functionality, aldehydes, ketones, phenolics, or acids, and the growth rate of P. putida was evaluated against each class of compounds.
The compound `CC=O` [Acetaldehyde] yielded a concentration giving a half-maximal response (EC50) of 16.2 mM.

`CC(C)=O` [Acetone] came in with a 50% effective concentration (EC50) of 39.3 mM.

Compound `C=CC(=O)O` [Acrylic acid] gave an EC50 of 11.7 mM.

`Oc1ccccc1O` [Catechol]: the EC50 was 42.4 mM.

`C/C=C/C=O` [Crotonaldehyde] returned an EC50 of 17.4 mM.

Consider `O=CC=O` [Glyoxal], for which a half-maximal response (EC50) required 3.5 mM.

As for `CC(=O)CCO` [Methylolacetone], the midpoint of the response, the EC50, lay at 28.8 mM.

As to `Cc1cccc(O)c1` [m-Cresol], the EC50 was found to be 3.46 mM.

`Cc1ccccc1O` [o-Cresol] returned a 50% effective concentration (EC50) of 3.12 mM.

The same assay, now with this note: Pseudomonas putida, KT2440, effective concentration that decreases the growth rate by 50%; M9 medium with 20 mM glucose, 30° C.
Compound `C=O` [Formaldehyde] yielded an EC50 of about 2 mM.

As to `Oc1ccccc1` [Phenol], the EC50 is 9.24 mM.

Staying with this assay, now noted: Pseudomonas putida, KT2440, effective concentration that decreases the growth rate by 50%; M9 medium with 20 mM glucose, 30° C.; read-out: EC50.
Regarding `Cc1ccc(C)c(O)c1` [2,5-Xylenol], the concentration for a half-maximal effect (EC50) turned out to be 2.52 mM.

For `O=C1C=CCO1` [2-Butenolide], the EC50 was found to be 7.77 mM.

For `CC1=CCOC1=O` [2-Methyl-butenolide], the EC50 was determined as 5.02 mM.

Turning to `CCC(=O)CO` [2-Oxobutanol], the EC50 is 27.8 mM.

For the compound `O=Cc1ccoc1` [3-Furancarboxaldehyde], the EC50 is 13.9 mM.

Take `O=Cc1ccc(CO)o1` [5-HMF, 5-(Hydroxymethyl)furfural]: the EC50 worked out at 14.3 mM.

In the case of `CC(=O)O` [Acetic acid], the EC50 is 64.1 mM.

For `CCCC(=O)O` [Butanoic acid], the EC50 was determined as 35.2 mM.

For the compound `O=Cc1ccco1` [Furfural], the EC50 was 21 mM.

For the compound `O=CCO` [Glycolaldehyde], the EC50 was about 2 mM.

For `COc1ccccc1O` [Guaiacol], the EC50 was found to be 13.3 mM.

Take `C=C(CC(=O)O)C(=O)O` [Itaconic acid]: the EC50 came out at 89.4 mM.

`CCC(=O)O` [Propionic acid]: the concentration giving a half-maximal response (EC50) was determined as 22.4 mM.

As for `COc1cccc(OC)c1O` [Syringol], the EC50 is 4.21 mM.

Consider `COc1cc(C=O)ccc1O` [Vanillin], for which the concentration giving a half-maximal response (EC50) came out at 6.34 mM.

For the compound `Cc1ccc(O)cc1` [p-Cresol], the EC50 worked out at 2.25 mM.

Still in this assay, the particulars now being: effective concentration that decreases the growth rate by 50%; M9 medium with 20 mM glucose, 30° C.
With `C=O` [Formaldehyde], a half-maximal response (EC50) required 2.07 mM.

Still in this assay, the particulars now being: effective concentration that decreases the growth rate by 50%; M9 medium with 20 mM glucose, 30° C.; read-out: EC50.
On to `Cc1ccc(C=O)o1` [5-methylfufaral], for which the EC50 came to 15 mM.

Regarding `CC(=O)CO` [Acetol], the EC50 was 12.4 mM.

As for `O=C1CCCC1` [Adipic ketone], the EC50 is 9.8 mM.

In the case of `O=CCO` [Glycolaldehyde], the EC50 came out at 2.14 mM.

The subject of a further assay is GFP-expressing strain of P. putida KT2440. Nature of the assay: GFP immunoblot of cell-free extract after GA or FPF treatment. In kind it is cell-based, Pseudomonas putida. As to conditions: GA (2 mM) or FPF (0.05% (v/v)). From the text:
Aldehydes, the key toxic component of the FPF stream, can confer molecular toxicity via protein damage. Indeed, GA, the major aldehyde present in FPF is a well-known post-translational protein-damaging agent. […] Cell-free extract from these conditions was immunoblotted to detect the presence of GFP. […] Furthermore, GFP inclusion bodies formed in cells treated with GA or FPF, which might be due to misfolding or cross-linking of the GFP protein. […] Thus, in an embodiment, overexpression of chaperones to rescue damaged or misfolded proteins was chosen as a strategy to enhance the tolerance of P. putida to FPF.
The fate of GFP in the LJ014 strain after treatment with FPF was then examined.
On the technique in general: A western blot detects proteins with antibodies after separation by electrophoresis.
With `O=CCO` [Glycolaldehyde], the “free-GFP level relative to the untreated controls” value is given as 46.8%.

By EC50 is commonly meant the concentration at which the effect is half-maximal.
